ChEMBL document CHEMBL1949655, “Neomycin-phenolic conjugates: polycationic amphiphiles with broad-spectrum antibacterial activity, low hemolytic activity and weak serum protein binding” (Bioorg Med Chem Lett, 2012)
Values after ≈ are worked out from the molar mass of the structure shown.

Experiments:
[1] = tested on: Staphylococcus aureus; assay: microbe, parasite or virus in culture; assay type: functional; settings: ATCC 29213, 24 h
Description: Antibacterial activity against Staphylococcus aureus ATCC 29213 after 24 hrs by macrobroth dilution method

[2] = tested on: Staphylococcus aureus; assay: microbe, parasite or virus in culture; assay type: functional; settings: ATCC 33592, 24 h
Description: Antibacterial activity against methicillin-resistant Staphylococcus aureus ATCC 33592 after 24 hrs by macrobroth dilution method

[3] = tested on: Staphylococcus epidermidis; assay: microbe, parasite or virus in culture; assay type: functional; settings: Staphylococcus epidermidis, 81388, 24 h
Description: Antibacterial activity against methicillin-susceptible Staphylococcus epidermidis 81388 after 24 hrs by macrobroth dilution method

[4] = tested on: Staphylococcus epidermidis; assay: microbe, parasite or virus in culture; assay type: functional; settings: isolate CAN-ICU61589, 24 h
Description: Antibacterial activity against methicillin-resistant Staphylococcus epidermidis isolate CAN-ICU 61589 after 24 hrs by macrobroth dilution method

[5] = tested on: Enterococcus faecalis; assay: microbe, parasite or virus in culture; assay type: functional; settings: ATCC 29212, 24 h
Description: Antibacterial activity against Enterococcus faecalis ATCC 29212 after 24 hrs by macrobroth dilution method

[6] = tested on: Enterococcus faecium; assay: microbe, parasite or virus in culture; assay type: functional; settings: ATCC 27270, 24 h
Description: Antibacterial activity against Enterococcus faecium ATCC 27270 after 24 hrs by macrobroth dilution method

[7] = tested on: Streptococcus pneumoniae; assay: microbe, parasite or virus in culture; assay type: functional; settings: ATCC 49619, 24 h
Description: Antibacterial activity against Streptococcus pneumoniae ATCC 49619 after 24 hrs by macrobroth dilution method

[8] = tested on: Escherichia coli; assay: microbe, parasite or virus in culture; assay type: functional; settings: ATCC 25922, 24 h
Description: Antibacterial activity against Escherichia coli ATCC 25922 after 24 hrs by macrobroth dilution method

[9] = tested on: Escherichia coli; assay: microbe, parasite or virus in culture; assay type: functional; settings: isolate CAN-ICU 61714, 24 h
Description: Antibacterial activity against Escherichia coli isolate CAN-ICU 61714 after 24 hrs by macrobroth dilution method

[10] = tested on: Escherichia coli; assay: microbe, parasite or virus in culture; assay type: functional; settings: isolate CAN-ICU 63074, 24 h
Description: Antibacterial activity against Escherichia coli isolate CAN-ICU 63074 after 24 hrs by macrobroth dilution method

[11] = tested on: Pseudomonas aeruginosa; assay: microbe, parasite or virus in culture; assay type: functional; settings: ATCC 27853, 24 h
Description: Antibacterial activity against Pseudomonas aeruginosa ATCC 27853 after 24 hrs by macrobroth dilution method

[12] = tested on: Pseudomonas aeruginosa; assay: microbe, parasite or virus in culture; assay type: functional; settings: isolate CAN-ICU 62308, 24 h
Description: Antibacterial activity against Pseudomonas aeruginosa isolate CAN-ICU 62308 after 24 hrs by macrobroth dilution method

[13] = tested on: Stenotrophomonas maltophilia; assay: microbe, parasite or virus in culture; assay type: functional; settings: isolate CAN-ICU 62584, 24 h
Description: Antibacterial activity against Stenotrophomonas maltophilia isolate CAN-ICU 62584 after 24 hrs by macrobroth dilution method

[14] = tested on: Acinetobacter baumannii; assay: microbe, parasite or virus in culture; assay type: functional; settings: isolate CAN-ICU 63169, 24 h
Description: Antibacterial activity against Acinetobacter baumannii 63169 isolate CAN-ICU after 24 hrs by macrobroth dilution method

[15] = tested on: Klebsiella pneumoniae; assay: microbe, parasite or virus in culture; assay type: functional; settings: ATCC 13883, 24 h
Description: Antibacterial activity against Klebsiella pneumoniae ATCC 13883 after 24 hrs by macrobroth dilution method

[16] = tested on: Staphylococcus aureus; assay: microbe, parasite or virus in culture; assay type: functional; settings: ATCC 29213, 24 h; remark: listed apart in the source
Description: Antibacterial activity against Staphylococcus aureus ATCC 29213 after 24 hrs by macrobroth dilution method in the presence of bovine serum albumin

[17] = tested on: Staphylococcus aureus; assay: microbe, parasite or virus in culture; assay type: functional; settings: ATCC 33592, 24 h; remark: listed apart in the source
Description: Antibacterial activity against methicillin-resistant Staphylococcus aureus ATCC 33592 after 24 hrs by macrobroth dilution method in the presence of bovine serum albumin

[18] = tested on: Staphylococcus epidermidis; assay: microbe, parasite or virus in culture; assay type: functional; settings: Staphylococcus epidermidis, 81388, 24 h; remark: listed apart in the source
Description: Antibacterial activity against methicillin-susceptible Staphylococcus epidermidis 81388 after 24 hrs by macrobroth dilution method in the presence of bovine serum albumin

[19] = tested on: Staphylococcus epidermidis; assay: microbe, parasite or virus in culture; assay type: functional, isolate CAN-ICU 61589; settings: isolate CAN-ICU61589, 24 h
Description: Antibacterial activity against methicillin-resistant Staphylococcus epidermidis isolate CAN-ICU 61589 after 24 hrs by macrobroth dilution method in the presence of bovine serum albumin

[20] = tested on: Enterococcus faecalis; assay: microbe, parasite or virus in culture; assay type: functional; settings: ATCC 29212, 24 h; remark: listed apart in the source
Description: Antibacterial activity against Enterococcus faecalis ATCC 29212 after 24 hrs by macrobroth dilution method in the presence of bovine serum albumin

[21] = tested on: Enterococcus faecium; assay: microbe, parasite or virus in culture; assay type: functional; settings: ATCC 27270, 24 h; remark: listed apart in the source
Description: Antibacterial activity against Enterococcus faecium ATCC 27270 after 24 hrs by macrobroth dilution method in the presence of bovine serum albumin

[22] = tested on: Streptococcus pneumoniae; assay: microbe, parasite or virus in culture; assay type: functional; settings: ATCC 49619, 24 h; remark: listed apart in the source
Description: Antibacterial activity against Streptococcus pneumoniae ATCC 49619 after 24 hrs by macrobroth dilution method in the presence of bovine serum albumin

[23] = tested on: Escherichia coli; assay: microbe, parasite or virus in culture; assay type: functional; settings: ATCC 25922, 24 h; remark: listed apart in the source
Description: Antibacterial activity against Escherichia coli ATCC 25922 after 24 hrs by macrobroth dilution method in the presence of bovine serum albumin

[24] = tested on: Escherichia coli; assay: microbe, parasite or virus in culture; assay type: functional; settings: isolate CAN-ICU 61714, 24 h; remark: listed apart in the source
Description: Antibacterial activity against Escherichia coli isolate CAN-ICU 61714 after 24 hrs by macrobroth dilution method in the presence of bovine serum albumin

[25] = tested on: Escherichia coli; assay: microbe, parasite or virus in culture; assay type: functional; settings: isolate CAN-ICU 63074, 24 h; remark: listed apart in the source
Description: Antibacterial activity against Escherichia coli isolate CAN-ICU 63074 after 24 hrs by macrobroth dilution method in the presence of bovine serum albumin

[26] = tested on: Pseudomonas aeruginosa; assay: microbe, parasite or virus in culture; assay type: functional; settings: ATCC 27853, 24 h; remark: listed apart in the source
Description: Antibacterial activity against Pseudomonas aeruginosa ATCC 27853 after 24 hrs by macrobroth dilution method in the presence of bovine serum albumin

[27] = tested on: Pseudomonas aeruginosa; assay: microbe, parasite or virus in culture; assay type: functional; settings: isolate CAN-ICU 62308, 24 h; remark: listed apart in the source
Description: Antibacterial activity against Pseudomonas aeruginosa isolate CAN-ICU 62308 after 24 hrs by macrobroth dilution method in the presence of bovine serum albumin

[28] = tested on: Stenotrophomonas maltophilia; assay: microbe, parasite or virus in culture; assay type: functional; settings: isolate CAN-ICU 62584, 24 h; remark: listed apart in the source
Description: Antibacterial activity against Stenotrophomonas maltophilia isolate CAN-ICU 62584 after 24 hrs by macrobroth dilution method in the presence of bovine serum albumin

[29] = tested on: Acinetobacter baumannii; assay: microbe, parasite or virus in culture; assay type: functional; settings: isolate CAN-ICU 63169, 24 h; remark: listed apart in the source
Description: Antibacterial activity against Acinetobacter baumannii isolate CAN-ICU 63169 after 24 hrs by macrobroth dilution method in the presence of bovine serum albumin

[30] = tested on: Klebsiella pneumoniae; assay: microbe, parasite or virus in culture; assay type: functional; settings: ATCC 13883, 24 h; remark: listed apart in the source
Description: Antibacterial activity against Klebsiella pneumoniae ATCC 13883 after 24 hrs by macrobroth dilution method in the presence of bovine serum albumin

[31] = Aqueous solubility of the compound; assay type: physicochemical; settings: buffer
[32] = Toxicity in human erythrocytes assessed as hemolysis at 100 ug/ml by spectrophotometry; settings: at 100 µg/mL

| Structure (SMILES) | MIC90 [1] | MIC90 [2] | MIC90 [3] | MIC90 [4] | MIC90 [5] | MIC90 [6] | MIC90 [7] | MIC90 [8] | MIC90 [9] | MIC90 [10] | MIC90 [11] | MIC90 [12] | MIC90 [13] | MIC90 [14] | MIC90 [15] | MIC90 [16] | MIC90 [17] | MIC90 [18] | MIC90 [19] | MIC90 [20] | also measured |
| --- | --- | --- | --- | --- | --- | --- | --- | --- | --- | --- | --- | --- | --- | --- | --- | --- | --- | --- | --- | --- | --- |
| Cc1cc(O)cc(C)c1Cl [CHLOROXYLENOL] | 32 µg/mL (≈ 204 µM) | 64 µg/mL (≈ 409 µM) | 32 µg/mL (≈ 204 µM) | 16 µg/mL (≈ 102 µM) | 256 µg/mL (≈ 1630 µM) | 256 µg/mL (≈ 1630 µM) | 128 µg/mL (≈ 817 µM) | 256 µg/mL (≈ 1630 µM) | 256 µg/mL (≈ 1630 µM) | 256 µg/mL (≈ 1630 µM) | 512 µg/mL (≈ 3270 µM) | 256 µg/mL (≈ 1630 µM) | 128 µg/mL (≈ 817 µM) | 128 µg/mL (≈ 817 µM) | 256 µg/mL (≈ 1630 µM) | 512 µg/mL (≈ 3270 µM) | 512 µg/mL (≈ 3270 µM) | 512 µg/mL (≈ 3270 µM) | 512 µg/mL (≈ 3270 µM) | > 512 µg/mL | MIC90 [21]: > 512 µg/mL; MIC90 [22]: > 512 µg/mL; MIC90 [23]: > 512 µg/mL; MIC90 [24]: > 512 µg/mL; MIC90 [25]: > 512 µg/mL; MIC90 [26]: > 512 µg/mL; MIC90 [27]: > 512 µg/mL; MIC90 [28]: > 512 µg/mL; MIC90 [29]: > 512 µg/mL; MIC90 [30]: > 512 µg/mL |
| CC(C)(C)CC(C)(C)c1ccc(O)c(Cc2ccc(Cl)cc2Cl)c1 [CLOFOCTOL] | – | – | – | – | – | – | – | – | – | – | – | – | – | – | – | – | – | – | – | – | solubility [31]: Insoluble |
| NC[C@@H]1O[C@H](O[C@H]2[C@@H](O)[C@H](O[C@@H]3[C@@H](O)[C@H](N)C[C@H](N)[C@H]3O[C@H]3O[C@H](CN)[C@@H](O)[C@H](O)[C@H]3N)O[C@@H]2CO)[C@H](N)[C@@H](O)[C@@H]1O.O.O=S(=O)(O)O [NEOMYCIN TRISULFATE HYDRATE] | 1 µg/mL | 256 µg/mL | 0.5 µg/mL | ≤ 0.25 µg/mL | 16 µg/mL | 4 µg/mL | 32 µg/mL | 4 µg/mL | 1 µg/mL | 8 µg/mL | 512 µg/mL | 256 µg/mL | > 512 µg/mL | 64 µg/mL | 0.25 µg/mL | 0.5 µg/mL | 128 µg/mL | 0.5 µg/mL | ≤ 0.25 µg/mL | 16 µg/mL | MIC90 [21]: 4 µg/mL; MIC90 [22]: 8 µg/mL; MIC90 [23]: 0.25 µg/mL; MIC90 [24]: 1 µg/mL; MIC90 [25]: 16 µg/mL; MIC90 [26]: 256 µg/mL; MIC90 [27]: 256 µg/mL; MIC90 [28]: > 512 µg/mL; MIC90 [29]: 32 µg/mL; MIC90 [30]: ≤ 0.25 µg/mL; hemolysis at 100 ug/ml [32]: 0.69% |
| Oc1cc(Cl)ccc1Oc1ccc(Cl)cc1Cl [TRICLOSAN] | 0.5 µg/mL (≈ 1.73 µM) | ≤ 0.25 µg/mL | 1 µg/mL (≈ 3.45 µM) | ≤ 0.25 µg/mL | 8 µg/mL (≈ 27.6 µM) | 16 µg/mL (≈ 55.3 µM) | 128 µg/mL (≈ 442 µM) | ≤ 0.25 µg/mL | 1 µg/mL (≈ 3.45 µM) | 1 µg/mL (≈ 3.45 µM) | > 512 µg/mL | 64 µg/mL (≈ 221 µM) | 512 µg/mL (≈ 1770 µM) | 8 µg/mL (≈ 27.6 µM) | 1 µg/mL (≈ 3.45 µM) | 0.5 µg/mL (≈ 1.73 µM) | 1 µg/mL (≈ 3.45 µM) | 1 µg/mL (≈ 3.45 µM) | 1 µg/mL (≈ 3.45 µM) | 512 µg/mL (≈ 1770 µM) | MIC90 [21]: 512 µg/mL (≈ 1770 µM); MIC90 [22]: 256 µg/mL (≈ 884 µM); MIC90 [23]: 16 µg/mL (≈ 55.3 µM); MIC90 [24]: 16 µg/mL (≈ 55.3 µM); MIC90 [25]: 64 µg/mL (≈ 221 µM); MIC90 [26]: > 512 µg/mL; MIC90 [27]: > 512 µg/mL; MIC90 [28]: > 512 µg/mL; MIC90 [29]: 128 µg/mL (≈ 442 µM); MIC90 [30]: 32 µg/mL (≈ 111 µM) |
